Test results reported in US9757350B2, “Small molecule inhibitors of replication protein A that also act synergistically with cisplatin” (Indiana University Research and Technology Corp., priority 2010, dated 2017).
Entries after “also recorded” stand apart in the source; their conditions may differ.

Key:
[1] = target: T1, full-length heterotrimeric RPA (Homo sapiens, UniProt P27694); assay: EMSA in vitro DNA binding assay, full-length heterotrimeric RPA; conditions: ssDNA substrate
T1 construct: Human full-length, un-tagged heterotrimeric RPA (RPA) was purified as previously describe; made in house
Method: RPA. Human full-length, un-tagged heterotrimeric RPA (RPA) was purified as previously describe.
RPA and DBD-A/B Binding. EMSAs were performed as previously described (22) using a 30-base purine rich ssDNA substrate (3Pc3). Briefly, reactions contained 12.5 nM 5′-[^32P]-labeled 3Pc3 ssDNA and the indicated concentrations of RPA or DBD-A/B. Protein was pre-incubated with the indicated concentration of SMI for 30 minutes at 37° C. DNA was then added and reactions incubated for an additional 5 minutes at room temperature in a final reaction volume of 40 μL. Reactions were then resolved on a 6% native polyacrylamide gel and electrophoresed at 170 volts for 1 hour. Gels were dried and quantified via phosphorimager analysis and ImageQuant software (Molecular Dynamics).

p53 = assay: Western blot of p53 serine-15 phosphorylation; format: cell-based; conditions: A549, western blot
Method: Real-Time PCR—A549 cells were plated in 10 cm dishes at 1.5×10^6, allowed to adhere, and treated for 24-48 hours with cisplatin or SMIs (5 μM). Referring now to FIG. 16B, Western blot of cells treated sequentially. For sequential treatment, A549 cells were exposed to cisplatin for 24 hours followed by the addition of SMIs for another 24 hours as above. Referring now to FIG. 16A, A549 cells were treated sequentially or concurrently with cisplatin (5 μM) and MCI13E or MCI13F for 24 total hours. Lysates were probed for p53-ser15-phosphorylation or phosphorylated-ATM. GAPDH was probed as a loading control. Concurrently treated cells were incubated simultaneously with both cisplatin and MCIs for 24 hours. RNA was extracted using RNeasy minikit (Qiagen, Germantown, Md.) per manufacturer's protocol. cDNA was generated using Applied Biosystem's (ABI) High Capacity RNA-to-cDNA kit. Validated gene primer/probe sets, also from ABI, were used for Quantitative Real Time-PCR. ABI's ΔΔCT Relative Quantification methodology was used for the analyses (applied Biosystems). Data were normalized to the housekeeping gene GAPDH and calibrated to the mock treated samples. Results presented are the average of two separate cell treatments/RNA isolations with duplicate Taqman Assays per RNA sample set. […]

A549 cells = assay: Combination index study with cisplatin (Chou-Talalay), crystal violet; format: cell-based; conditions: for Interaction with cisplatin, sequential treatment: A549, cisplatin 24 h, then SMI 24 h
Method: Synergy with cisplatin—Analyses thus far indicate that inhibition of RPA is effective in eliciting effects consistent with inhibition of RPAs role in cell cycle progression and DNA replication. To assess if SMI treatment impacts RPAs role in DNA repair, how MCI13E or MCI13F treatment influences cellular sensitivity to cisplatin was assessed. […] Cisplatin-induced DNA damage is primarily repaired via NER and homologous recombination. […] Initially, a concurrent approach, similar to that described for another RPA SMI, TDRL-505 (1) was used. Briefly, A549 cells were treated for 48 hours with MCI13E, cisplatin, or combination treatment, with viability determined via crystal violet staining. […] Next, a sequential treatment protocol was used, first treating cells with cisplatin for 24 hours, then adding the SMI and incubating for an additional 24 hours.
Combination Index—Studies Combination index studies, performed with combination SMI and cisplatin treatment, were used to determine the level of synergy or antagonism between the two compounds. Referring now to FIG. 19A, a schematic illustrating Sequential treatment with cisplatin and MCI13E, and FIG. 19B, a schematic illustrating concurrent treatment with cisplatin and MCI13E. Cells received the same concentration of cisplatin or MCI13E but the time the cells were treated with cisplatin varied whereas treatment time with MCI remained the same between the two treatment methods.
Briefly, A549 cells were plated as described above in 24-well dishes (5×10^4 cells per well) and treated either concurrently or sequentially with single agent cisplatin or MCI treatment or with combination treatments. […] Following 48 hours of total treatment cells were analyzed for viability using the crystal violet assay described above and combination index values were calculated based on the Chou and Talalay method (15) as we have previously described (1,23).

T1 sequence (P27694 whole entry): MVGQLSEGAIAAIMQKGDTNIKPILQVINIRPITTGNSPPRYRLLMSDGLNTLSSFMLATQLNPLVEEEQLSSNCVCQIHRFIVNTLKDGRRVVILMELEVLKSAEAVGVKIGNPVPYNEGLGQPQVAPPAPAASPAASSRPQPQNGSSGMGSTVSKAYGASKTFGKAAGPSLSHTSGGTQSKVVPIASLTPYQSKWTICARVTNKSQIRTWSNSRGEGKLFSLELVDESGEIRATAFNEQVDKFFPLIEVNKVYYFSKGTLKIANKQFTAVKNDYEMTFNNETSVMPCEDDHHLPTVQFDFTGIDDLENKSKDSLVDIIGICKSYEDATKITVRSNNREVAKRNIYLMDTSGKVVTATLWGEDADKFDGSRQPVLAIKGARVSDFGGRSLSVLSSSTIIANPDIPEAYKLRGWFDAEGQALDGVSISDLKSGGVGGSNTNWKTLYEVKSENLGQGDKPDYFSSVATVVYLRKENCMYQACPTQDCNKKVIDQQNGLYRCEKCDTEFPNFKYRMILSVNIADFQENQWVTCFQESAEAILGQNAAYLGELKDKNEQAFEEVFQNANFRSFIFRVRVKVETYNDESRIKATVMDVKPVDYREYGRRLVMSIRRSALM
T1 sequence (P15927 whole entry partner): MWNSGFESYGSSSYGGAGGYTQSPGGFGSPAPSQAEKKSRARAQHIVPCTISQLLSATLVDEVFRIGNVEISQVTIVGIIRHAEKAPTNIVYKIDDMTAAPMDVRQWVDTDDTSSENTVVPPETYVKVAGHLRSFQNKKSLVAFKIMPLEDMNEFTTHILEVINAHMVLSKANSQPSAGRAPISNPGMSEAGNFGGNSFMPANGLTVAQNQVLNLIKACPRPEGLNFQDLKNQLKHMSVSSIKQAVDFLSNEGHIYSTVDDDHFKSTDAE
T1 sequence (P35244 whole entry partner): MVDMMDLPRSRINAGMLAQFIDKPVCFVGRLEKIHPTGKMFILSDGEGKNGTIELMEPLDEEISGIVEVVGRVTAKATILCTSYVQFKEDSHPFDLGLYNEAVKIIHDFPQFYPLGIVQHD

Row | Structure (SMILES) | Inhibition of full-length RPA DNA binding [1] | p53 serine-15 phosphorylation, single agent (p53) | Interaction with cisplatin, sequential treatment (A549 cells) | Interaction with cisplatin, concurrent treatment (A549 cells; A549, 48 hours together)
1 | CC1(C)C2CCC1(C)C(OC(=O)CI)C2 (racemic) [MCI13F, (+/−)-Isobornyl iodoacetate] | slightly more effective | minimal single-agent effects on p53 phosphorylation | synergy with cisplatin at all tested concentrations | 
2 | CC1(C)C2CCC1(C)C(OC(=O)CBr)C2 (racemic) [MCI13E, (+/−)-Isobornyl bromoacetate] | inhibits RPA-DNA binding in vitro; also recorded: inhibition of the full-length heterotrimer RPA | minimal single-agent effects on p53 phosphorylation | synergizing with cisplatin at higher dosing concentrations | antagonistic effect
